Experimental data: patent publication US7569542B2, “Anti-microbial targeting chimeric pharmaceutical” (priority 1999, dated 2009)
Where no end group is shown, it is not given here.

Legend:
PAK cells [1] = experiment: Competition-binding experiment, labeled vs unlabeled Cat-1, fluorescent microscopy; design: species or system P. aeruginosa
Method: To further confirm the specificity of Cat-1 binding to Pak cells, competition-binding experiments were conducted. Labeled Cat-1 was mixed with increasing concentrations of unlabeled Cat-1, and fluorescent labeling of the target bacterial cells was measured by fluorescent microscopy.

[2] = Antimicrobial activity of targeting peptide alone; type: cell-based
P. mendocina [3] = type: cell-based, Pseudomonas mendocina
Method: (§1) Briefly, varying concentrations of peptide G10, G10CatC, or G10CatN was added to 10^5 of target bacterial cells and survivors were counted by plating samples after 0.5, 1, 2 and 4 minutes of peptide exposure.

S. aureus = type: cell-based
Method: (§2) To test the antimicrobial activity of the fusion peptides against target bacteria, a panel of bacteria, both gram positive and gram negative, were tested.

P. aeruginosa Pak (ATCC) = type: cell-based
Method: as §2

B. cepacia = type: cell-based
Method: as §2

E. coli 3132 (wt) = type: cell-based
Method: as §2

Salmonella Lt2 (ATCC) = type: cell-based
Method: as §2

P. fluorescens 1089 = type: cell-based
Method: as §2

P. fluorescens 1088 = type: cell-based
Method: as §2

E. coli Aw405 = type: cell-based
Method: as §2

Myxococcus = type: cell-based
Method: as §2

P. tabaci = type: cell-based
Method: as §2

E. coli Mg1665 (smooth) = type: cell-based
Method: as §2

P. aeruginosa Pak = type: cell-based; conditions: for MBC: Pak
Method: as §2

P. mendocina [4] = type: cell-based
Method: as §2

Klebsiella Kay2026 = type: cell-based
Method: as §2

E. coli W3110 [5] = type: cell-based
Method: as §2

Y. entercolitica = type: cell-based
Method: as §2

S. sanguis [6] = tested on: S. sanguis
Host cells = experiment: Minimal Inhibitory Concentrations; type: cell-based
P. mendocina [7] = experiment: Long-term time-kill experiment (up to 2 h); type: cell-based, Pseudomonas mendocina; conditions: for time to kill all input P. mendocina cells: 3 μM peptide; for surviving P. mendocina cells: 9 μM peptide
Method: Similar to the short-term kinetic studies described above, treatment with 3 μM G10CatC killed all input P. mendocina cells within 30 min, in contrast, it took 2 h for G10 alone to kill all input P. mendocina cells at the same concentration.

S. mutans cells = experiment: Selective killing in mixed culture of PAK and S. mutans cells; type: cell-based; conditions: 9 μM peptide, within 4 min; mixed with PAK cells
Description: (§3) In contrast, G10CatC killed over 90% of PAK cells, but none of S. mutans cells.

P. mendocina [8] = experiment: Selective killing in mixed culture of P. mendocina and E. coli W3110; type: cell-based; conditions: 6 μM peptide, 4 min; mixed with E. coli W3110; preliminary results
Method: (§4) To test if G10CatC can selectively kill its target bacteria in a mixed culture, 10^5 of P. mendocina and E. coli W3110 cells were mixed and treated with 6 μM G10 or G10CatC peptides. Samples were taken at 30 sec. 1 min, 2 min, and 4 min, and survivors were counted by plating assays.

E. coli W3110 [9] = experiment: as above; type: cell-based; conditions: 6 μM peptide, 4 min; mixed with P. mendocina; preliminary results
Method: as §4

E. coli W3110 ampR = type: cell-based
Method: as §2

S. mutans 159 = type: cell-based
Method: as §2

S. oralis = type: cell-based
Method: as §2

S. mitis = type: cell-based
Method: as §2

S. mutans 140 = type: cell-based
Method: as §2

S. sanguis [10] = type: cell-based
Method: as §2

PAK cells [11] = experiment: Selective killing in mixed culture of PAK and S. mutans cells; type: cell-based, P. aeruginosa; conditions: 9 μM peptide, within 4 min; mixed with S. mutans
Description: as §3

PAK cells [12] = type: cell-based, Pseudomonas aeruginosa PAK; conditions: 18 μM peptide, up to 4 min
Method: as §1

| Compound | MBC (S. aureus) | MBC (P. aeruginosa Pak (ATCC)) | MBC (B. cepacia) | MBC (E. coli 3132 (wt)) | MBC (Salmonella Lt2 (ATCC)) | MBC (P. fluorescens 1089) | MBC (P. fluorescens 1088) | MBC (E. coli Aw405) | MBC (Myxococcus) | MBC (P. tabaci) | MBC (E. coli Mg1665 (smooth)) | MBC (P. aeruginosa Pak) | MBC (P. mendocina [4]) | MBC (Klebsiella Kay2026) | MBC (E. coli W3110 [5]) | MBC (Y. entercolitica) | time to kill all input P. mendocina cells (P. mendocina [7]) | killing of S. mutans cells in mixed culture (S. mutans cells) | live P. mendocina cells in mixed culture (P. mendocina [8]) | live W3110 cells in mixed culture (E. coli W3110 [9]) | also measured |
| --- | --- | --- | --- | --- | --- | --- | --- | --- | --- | --- | --- | --- | --- | --- | --- | --- | --- | --- | --- | --- | --- |
| KKHRKHRKHRKH (Design peptide) [Cat-1, 61] | – | – | – | – | – | – | – | – | – | – | – | – | – | – | – | – | – | – | – | – | fluorescent signal of labeled Cat-1 on PAK cells (PAK cells [1]; 10× molar excess unlabeled Cat-1): completely abolished; fluorescent signal of labeled Cat-1 on PAK cells (PAK cells [1]; equal molar concentration of unlabeled Cat-1 added): reduced; antimicrobial activity [2]: does not have any antimicrobial activity |
| KNLRRIIRKGIHIIKKYGGGSGGSKKHRKHRKHRKH [G10CatN] | >23.2 µM | 17.4 µM | 11.6 µM | 11.6 µM | >23.2 µM | 11.6 µM | 1.45 µM | >23.2 µM | >11.6 µM | >11.6 µM | >23.2 µM | 45 µM | 2.8 µM | >11.6 µM | >11.6 µM | >23.2 µM | – | – | – | – | killing (P. mendocina [3]; any concentration tested, through 4 minutes): no killing |
| C[C@H](NC(=O)[C@H](Cc1cnc[nH]1)NC(=O)[C@H](CO)NC(=O)[C@@H](N)CC(=O)O)C(=O)N[C@@H](CCCCN)C(=O)N[C@@H](CCCNC(=N)N)C(=O)N[C@@H](Cc1cnc[nH]1)C(=O)N[C@@H](Cc1cnc[nH]1)C(=O)NCC(=O)N[C@@H](Cc1ccc(O)cc1)C(=O)N[C@@H](CCCCN)C(=O)N[C@@H](CCCNC(=N)N)C(=O)N[C@@H](CCCCN)C(=O)N[C@@H](Cc1ccccc1)C(=O)N[C@@H](Cc1cnc[nH]1)C(=O)N[C@@H](CCC(=O)O)C(=O)N[C@@H](CCCCN)C(=O)N[C@@H](Cc1cnc[nH]1)C(=O)N[C@@H](Cc1cnc[nH]1)C(=O)N[C@@H](CO)C(=O)N[C@@H](Cc1cnc[nH]1)C(=O)N[C@@H](CCCNC(=N)N)C(=O)NCC(=O)N[C@@H](Cc1ccc(O)cc1)C(=O)O [Histatin 5, DSHAKRHHGY KRKFHEKHHS HRGY] | – | – | – | – | – | – | – | – | – | – | – | – | – | – | – | – | – | – | – | – | Minimal Inhibitory Concentrations (S. mutans): ~10 µM; Minimal Inhibitory Concentrations (S. sanguis [6]): ~10 µM; Minimal Inhibitory Concentrations (Host cells): >50 µM |
| KKHRKHRKHRKHGGSGGSKNLRRIIRKGIHIIKKYG [G10CatC] | >23.2 µM | 4.9 µM | 13 µM | 5.8 µM | 11.6 to 23.2 µM | 2.9 µM | 1.45 µM | 11.6 µM | >11.6 µM | 2.175 µM | 2.9 µM | 1.4 to 2.9 µM | 1.4 to 2.4 µM | 11.6 to 23.2 µM | 2.81 µM | 23.2 µM | ≤ 30 min | none | no live P. mendocina cells could be detected | remained nearly unchanged | surviving P. mendocina cells (P. mendocina [7]; after 2 minutes of treatment): no surviving P. mendocina cells were recovered; time to reduce live P. mendocina cells to below detectable levels (P. mendocina [3]; 3 μM peptide): ≤ 4 min; MBC (E. coli W3110 ampR): 2.9 µM; MBC (S. mutans 159): 3.6 to 7.25 µM; MBC (S. oralis): >58 µM; MBC (S. mitis): >58 µM; MBC (S. mutans 140): 3.6 to 7.25 µM; enhancement of killing activity relative to G10 (P. aeruginosa Pak; against Pak, from MBC): 38 fold; MBC relative to G10 alone (higher) (P. mendocina [4]; P. mendocina): 2 ×; decrease of killing activity relative to G10 (P. mendocina [4]; against P. mendocina, from MBC): 2 fold; MBC (S. sanguis [10]): 3.6 to 7.25 µM |
| KNLRRIIRKGIHIIKKYG [G10, KNLRRIIRKGIHIIKKYG, reference compound] | >22.5 µM | 42.18 µM | 23 µM | 11.25 µM | >22.5 µM | >11.25 µM | 1.4 µM | 2.8 µM | >11.25 µM | 5.625 µM | 2.8 µM | 54.5 µM | 1.05 µM | >11.25 µM | 1.4 µM | 22.5 µM | 120 min | did not kill any of the cells | did not affect the survival | did not affect the survival | killing of PAK cells in mixed culture (PAK cells [11]): did not kill any of the cells; surviving P. mendocina cells (P. mendocina [7]; after 30 minutes of exposure): a significant number of cells were recovered; killing activity (P. mendocina [3]; 3 μM peptide, within 4 min): did not display any killing activity; killing activity (PAK cells [12]): did not show any killing activity; MBC (E. coli W3110 ampR): 2.8 µM; MBC (S. mutans 159): 3.5 to 7.03 µM; MBC (S. oralis): >58 µM; MBC (S. mitis): >58 µM; MBC (S. mutans 140): 3.5 to 7.03 µM; MBC (S. sanguis [10]): 3.5 to 7.03 µM |
